Data reported in the Kinase Knowledgebase extract (Sharma et al. 2016).

These compounds were tested against PIK3CA (human) (UniProt P42336) (assay: Assessment of PIK3CA Kinase Activity).
Sequence of PIK3CA (human) (P42336 whole entry, looked up): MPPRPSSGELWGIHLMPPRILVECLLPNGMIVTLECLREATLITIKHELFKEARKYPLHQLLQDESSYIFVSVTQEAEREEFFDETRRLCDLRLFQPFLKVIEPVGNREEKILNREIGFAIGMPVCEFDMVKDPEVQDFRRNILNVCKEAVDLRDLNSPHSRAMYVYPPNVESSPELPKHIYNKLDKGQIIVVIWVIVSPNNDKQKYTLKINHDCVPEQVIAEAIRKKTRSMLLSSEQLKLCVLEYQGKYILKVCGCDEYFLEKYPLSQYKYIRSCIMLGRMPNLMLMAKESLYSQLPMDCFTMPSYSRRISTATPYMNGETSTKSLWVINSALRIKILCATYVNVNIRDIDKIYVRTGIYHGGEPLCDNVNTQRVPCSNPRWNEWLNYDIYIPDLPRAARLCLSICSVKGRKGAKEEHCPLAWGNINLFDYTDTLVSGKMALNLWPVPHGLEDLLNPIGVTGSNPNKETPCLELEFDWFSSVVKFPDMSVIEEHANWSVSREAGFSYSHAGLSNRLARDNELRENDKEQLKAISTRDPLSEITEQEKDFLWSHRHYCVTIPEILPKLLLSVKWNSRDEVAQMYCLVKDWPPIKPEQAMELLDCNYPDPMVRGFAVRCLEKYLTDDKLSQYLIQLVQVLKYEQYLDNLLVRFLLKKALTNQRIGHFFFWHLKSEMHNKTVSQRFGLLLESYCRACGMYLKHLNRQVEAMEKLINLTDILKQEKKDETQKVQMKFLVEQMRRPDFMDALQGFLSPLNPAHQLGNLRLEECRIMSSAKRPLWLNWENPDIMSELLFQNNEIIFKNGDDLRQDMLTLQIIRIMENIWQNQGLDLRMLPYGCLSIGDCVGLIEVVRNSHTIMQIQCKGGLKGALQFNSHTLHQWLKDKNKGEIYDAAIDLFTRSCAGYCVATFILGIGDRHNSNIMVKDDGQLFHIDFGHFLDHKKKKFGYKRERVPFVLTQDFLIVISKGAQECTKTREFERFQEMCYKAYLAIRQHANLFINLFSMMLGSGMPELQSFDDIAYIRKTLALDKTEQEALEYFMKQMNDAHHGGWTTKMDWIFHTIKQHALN

SMILES | IC50
O=C(c1nc2c(s1)CCOc1cc(-c3cn[nH]c3)ccc1-2)N1CC[C@@H](O)C1 | < 1000 nM
CC(C)n1ncnc1-c1nc2c(s1)CCOc1cc(-c3cn(CCO)cn3)ccc1-2 | < 1000 nM
COCCn1cccc(-c2ccc3c(c2)-c2nc(-c4ncnn4C(C)C)sc2CCO3)c1=O | < 1000 nM
O=C(c1nc2c(s1)CCOc1cc(-c3cn[nH]c3)ccc1-2)N1CCN(CCO)CC1 | < 1000 nM
Cc1nc(-c2nc3c(s2)CCOc2cc(-c4cnn(C5CNC5)c4)ccc2-3)n(C(C)C)n1 | < 1000 nM
CC1CN(C(=O)c2nc3c(s2)CCOc2cc(-c4cn[nH]c4)ccc2-3)CCN1 (configuration not stated) | < 1000 nM
O=C(c1nc2c(s1)CCOc1cc(-c3cn[nH]c3)ccc1-2)N1CCC(C(=O)N2CCCC2)CC1 | < 1000 nM
CC(C)n1ncnc1-c1nc2c(s1)CCOc1cc(-c3cnc(CO)n3C)ccc1-2 | < 1000 nM
CC(C)n1cnnc1-c1nc2c(s1)CCOc1cc(CNCCO)ccc1-2 | < 1000 nM
CC(C)n1ncnc1-c1cc2c(s1)-c1ccc(C3CNC3)cc1OCC2 | < 1000 nM
CC1CCN(C(=O)c2nc3c(s2)CCOc2cc(-c4cn[nH]c4)ccc2-3)CC1 | < 1000 nM
Cc1ccc(-c2ccc3c(c2)-c2nc(-c4ncnn4C(C)C)sc2CCO3)cn1 | < 1000 nM
Fc1ccc(-n2ncnc2-c2cc3c(s2)-c2nc(-c4ccc(N5CCCC5)nc4)ccc2OCC3)c(F)c1 | < 1000 nM
O=C(O)c1cccc(-c2ccc3c(c2)OCCc2sc(-c4ncnn4CC(F)(F)F)nc2-3)c1 | < 1000 nM
CC1(C)C(=O)N(CCN)C(=O)N1c1nc2c(s1)CCOc1ccccc1-2 | < 1000 nM
COc1cncc(-c2ccc3c(c2)-c2nc(-c4ncnn4C(C)C)sc2CCO3)c1 | < 1000 nM
CC(C)(O)Cn1cc(-c2ccc3c(c2)OCCc2sc(-c4ncnn4CCO)nc2-3)cn1 | < 1000 nM
COC[C@@H]1CCCN(C(=O)c2nc3c(s2)CCOc2cc(-c4cn[nH]c4)ccc2-3)C1 | < 1000 nM
FC(F)(F)Cn1ncnc1-c1nc2c(s1)CCOc1cc(-c3cnn(CCNC4COC4)c3)ccc1-2 | < 1000 nM
CN(C)[C@@H]1CCN(C(=O)c2nc3c(s2)CCOc2cc(-c4cn[nH]c4)ccc2-3)C1 | < 1000 nM
CC(C)n1ncnc1-c1nc2c(s1)CCOc1ccc(/C=C/S(C)(=O)=O)cc1-2 | < 1000 nM
CC(C)N(CCO)C(=O)c1nc2c(s1)CCOc1cc(-c3cnc(N4CCN(C)CC4)nc3)ccc1-2 | < 1000 nM
CC(C)Oc1ncccc1-c1ccc2c(c1)-c1nc(-c3ncnn3C(C)C)sc1CCO2 | < 1000 nM
CC(C)N(CCO)C(=O)c1nc2c(s1)CCOc1ccc(-c3ccc(N)nc3)cc1-2 | < 1000 nM
COCCNc1ccc2c(n1)-c1sc(-c3ncnn3-c3ccc(F)cc3F)cc1CCO2 | < 1000 nM
CC(C)c1nn(C)c(=O)n1-c1nc2c(s1)CCOc1cc(-c3cnn(CCO)c3)ccc1-2 | < 1000 nM

SMILES | IC50
Cc1nc(-c2nc3c(s2)CCOc2cc([C@@H]4CCCNC4)ccc2-3)n(C(C)C)n1 | < 1000 nM
Fc1ccc(-n2ncnc2-c2cc3c(s2)-c2nc(NCCN4CCCC4)ccc2OCC3)c(F)c1 | < 1000 nM
C[C@@H]1CN(C2CCN(C(=O)c3nc4c(s3)CCOc3cc(-c5cn[nH]c5)ccc3-4)CC2)C[C@@H](C)O1 | < 1000 nM
CN1CCC(n2ncnc2-c2nc3c(s2)CCOc2cc(-c4cnn(CCO)c4)ccc2-3)CC1 | < 1000 nM
COc1ccccc1C1CCN(C(=O)c2nc3c(s2)CCOc2cc(-c4cn[nH]c4)ccc2-3)CC1 | < 1000 nM
Cc1ccncc1-c1ccc2c(c1)-c1nc(-c3ncnn3C(C)C)sc1CCO2 | < 1000 nM
CC(C)C[C@@H](CO)NC(=O)c1nc2c(s1)CCOc1cc(-c3cn[nH]c3)ccc1-2 | < 1000 nM
CN(C[C@H](O)c1ccccc1)C(=O)c1nc2c(s1)CCOc1cc(-c3cn[nH]c3)ccc1-2 | < 1000 nM
CC(=O)N1CC(N(C(C)=O)c2ccc3c(n2)-c2sc(-c4ncnn4-c4ccc(F)cc4F)cc2CCO3)C1 | < 1000 nM
CC(C)n1ncnc1-c1nc2c(s1)CCOc1ccc(-c3cccnc3C(F)(F)F)cc1-2 | < 1000 nM
COC1CCN(C(=O)c2nc3c(s2)CCOc2cc(-c4cn[nH]c4)ccc2-3)CC1 | < 1000 nM
Cc1cncc(-c2ccc3c(c2)-c2nc(-c4ncnn4C(C)C)sc2CCO3)c1 | < 1000 nM
C[C@H](O)C(=O)N1CC(Nc2ccc3c(n2)-c2sc(-c4ncnn4-c4ccc(F)cc4F)cc2CCO3)C1 | < 1000 nM
C[C@H](O)C(=O)N1CCN(c2ccc3c(n2)-c2sc(-c4ncnn4-c4ccc(F)cc4F)cc2CCO3)CC1 | < 1000 nM
Cc1ncccc1-c1ccc2c(n1)-c1sc(-c3nccn3C(C)C)cc1CCO2 | < 1000 nM
CC(=O)NCCNc1ccc2c(n1)-c1sc(-c3ncnn3-c3ccc(F)cc3F)cc1CCO2 | < 1000 nM
COc1ncccc1-c1ccc2c(c1)-c1nc(C(=O)N(CCO)C(C)C)sc1CCO2 | < 1000 nM
Cc1nc(-c2nc3c(s2)CCOc2cc([C@H]4CCCNC4)ccc2-3)n(C(C)C)n1 | < 1000 nM
CC(C)(O)Cn1cc(-c2ccc3c(c2)OCCc2sc(N4C(=O)NCC4(C)C)nc2-3)cn1 | < 1000 nM
CC(C)n1cnnc1-c1nc2c(s1)CCOc1cc(CNCC(F)(F)F)ccc1-2 | < 1000 nM
CC(C)N1CCN(c2ccc3c(n2)-c2sc(-c4ncnn4-c4ccc(F)cc4F)cc2CCO3)CC1 | < 1000 nM
Fc1ccc(-n2ncnc2-c2cc3c(s2)-c2nc(NCC4CCCC4)ccc2OCC3)c(F)c1 | < 1000 nM
Cc1nc(-c2nc3c(s2)CCOc2cc(C4COC4)ccc2-3)n(C(C)C)n1 | < 1000 nM
CC(C)(O)Cn1cc(-c2ccc3c(c2)OCCc2sc(NC(C)(C)CO)nc2-3)cn1 | < 1000 nM
OC1CCN(c2ccc3c(n2)-c2sc(-c4ncnn4-c4ccc(F)cc4F)cc2CCO3)CC1 | < 1000 nM

Results, then the compound that gave them:

IC50 | SMILES
< 1000 nM | CNC1CCN(C(=O)c2nc3c(s2)CCOc2cc(-c4cn[nH]c4)ccc2-3)C1 (configuration not stated)
< 1000 nM | O=C(c1nc2c(s1)CCOc1cc(-c3cn[nH]c3)ccc1-2)N1CCCCC1
< 1000 nM | COc1ccc(CNc2ccc3c(n2)-c2sc(-c4ncnn4-c4ccc(F)cc4F)cc2CCO3)cc1
< 1000 nM | CC(C)n1ncnc1-c1nc2c(s1)CCOc1ccc(-c3cccn(CCN4CCOCC4)c3=O)cc1-2
< 1000 nM | Cc1nc(-c2nc3c(s2)CCOc2cc(C4CN(C[C@H](O)CO)C4)ccc2-3)n(C(C)C)n1
< 1000 nM | CC(C)n1ncc(CO)c1-c1cc2c(s1)-c1nc(Cl)ccc1OCC2
< 1000 nM | O=C(c1nc2c(s1)CCOc1cc(-c3cn[nH]c3)ccc1-2)N1CCC[C@@H](C(F)(F)F)C1
< 1000 nM | O=C(c1nc2c(s1)CCOc1cc(-c3cn[nH]c3)ccc1-2)N1CCN(C(=O)C2CC2)CC1
< 1000 nM | CNC(=O)c1ccc2c(c1)OCCc1cc(C(=O)N(C)c3cc(C(=O)NC[C@@H](C)O)ccc3Cl)sc1-2
< 1000 nM | CO[C@@H]1CCCN(C(=O)c2nc3c(s2)CCOc2cc(-c4cn[nH]c4)ccc2-3)C1
< 1000 nM | CS(=O)(=O)n1cc(-c2ccc3c(c2)OCCc2sc(-c4ncnn4CC(F)(F)F)nc2-3)cn1
< 1000 nM | CC(C)(C(=O)NCCO)n1cc(-c2ccc3c(c2)OCCc2sc(-c4ncnn4CC(F)(F)F)nc2-3)cn1
< 1000 nM | C[C@@H]1CN(c2ccc3c(n2)-c2sc(-c4ncnn4-c4ccc(F)cc4F)cc2CCO3)C[C@H](C)N1CC(F)F
< 1000 nM | CC(C)n1ncnc1-c1nc2c(s1)CCOc1ccc(-c3cccn(CC(=O)O)c3=O)cc1-2
< 1000 nM | CN(C(=O)c1cc2c(s1)-c1ccc(C(=O)NCCS(C)(=O)=O)cc1OCC2)c1cc(C(=O)NCCO)ccc1Cl
< 1000 nM | CC(C)n1ncnc1-c1nc2c(s1)CCOc1ccc(C3CCN(C(=O)[C@@H](C)O)CC3)cc1-2
< 1000 nM | CC(C)N(CCO)C(=O)c1nc2c(s1)CCOc1ccc(-c3cnn(CC(C)(C)O)c3)cc1-2
< 1000 nM | COc1ncccc1-c1ccc2c(n1)-c1sc(-c3ncnn3-c3ccc(F)cc3F)cc1CCO2
< 1000 nM | Fc1ccc(-n2ncnc2-c2cc3c(s2)-c2nc(-c4ccc(N5CCOCC5)nc4)ccc2OCC3)c(F)c1
< 1000 nM | CC(C)(O)Cn1cc(-c2ccc3c(c2)OCCc2sc(-c4nccn4CC(F)(F)F)nc2-3)cn1
< 1000 nM | CNC(=O)c1ccc2c(c1)OCCc1cc(C(=O)N(C)c3cc(C(=O)N(C)CCO)ccc3Cl)sc1-2

IC50 | SMILES
< 1000 nM | CC(C)(O)Cn1cc(-c2ccc3c(c2)OCCc2sc(-c4ncnn4Cc4ccccn4)nc2-3)cn1
< 1000 nM | CN(CCO)C(=O)c1nc2c(s1)CCOc1cc(-c3cn[nH]c3)ccc1-2
< 1000 nM | CC(C)n1ncnc1-c1nc2c(s1)CCOc1cc(C3CN(C(=O)C(C)(C)O)C3)ccc1-2
< 1000 nM | CC(C)n1ncnc1-c1nc2c(s1)CCOc1ccc(C3CN(C(=O)[C@@H](C)O)C3)cc1-2
< 1000 nM | CC(C)(C)n1nc(N)nc1-c1nc2c(s1)CCOc1cc(-c3cn[nH]c3)ccc1-2
< 1000 nM | CC(C)n1c(-c2nc3c(s2)CCOc2cc(-c4cnn(CCO)c4)ccc2-3)nnc1C(F)(F)F
< 1000 nM | CNS(=O)(=O)CCN1CC(c2ccc3c(c2)OCCc2sc(-c4ncnn4C(C)C)nc2-3)C1
< 1000 nM | CN(C)CCNc1ccc(-c2ccc3c(n2)-c2sc(-c4ncnn4-c4ccc(F)cc4F)cc2CCO3)cn1
< 1000 nM | C[C@H](O)CNC(=O)c1ccc2c(c1)OCCc1sc(-c3ncnn3CC(F)(F)F)nc1-2
< 1000 nM | O=C(NCCO)c1ccc2c(c1)OCCc1sc(-c3ncnn3CC(F)(F)F)nc1-2
< 1000 nM | CC(C)N(CCO)C(=O)c1nc2c(s1)CCOc1cc(-c3cnn(CC(C)(C)O)c3)ccc1-2
< 1000 nM | CN1CC(C)(C)N(c2nc3c(s2)CCOc2cc(-c4cnn(CC(C)(C)O)c4)ccc2-3)C1=O
< 1000 nM | CC(C)n1ncnc1-c1nc2c(s1)CCOc1ccc(C3CN(CC(N)=O)C3)cc1-2
< 1000 nM | O=C(c1nc2c(s1)CCOc1cc(-c3cn[nH]c3)ccc1-2)N1CCCCCCC1
< 1000 nM | CC(C)N(CCO)C(=O)c1nc2c(s1)CCOc1cc(-c3cnn(C)c3)ccc1-2
< 1000 nM | CNC(=O)c1ccc2c(c1)OCCc1cc(C(=O)N(C)c3cc(C(=O)N4CC(O)C4)ccc3Cl)sc1-2
< 1000 nM | CCN(CC)CCn1cc(-c2ccc3c(c2)OCCc2sc(-c4ncnn4CC(F)(F)F)nc2-3)cn1
< 1000 nM | Cc1ccncc1-c1ccc2c(c1)-c1nc(C(=O)N(CCO)C(C)C)sc1CCO2
< 1000 nM | CC(C)(O)CCc1ccc2c(n1)-c1sc(-c3ncnn3-c3ccc(F)cc3F)cc1CCO2
< 1000 nM | CNC(=O)c1ccc2c(c1)OCCc1cc(C(=O)N(C)c3cc(C(=O)N4CC(F)(F)C4)ccc3Cl)sc1-2
